Results taken from US20250275981A1, “HOMOHARRINGTONINE AND PACLITAXEL COMBINATION FOR THE TREATMENT OF BREAST CANCER” (priority 2022, published 2025).
Read-outs that look alike come from different tables or passages of the source.

What was measured:
[1] = test system: HCC1806 cells; test: cells; assay type: cell-based
Source text: (§1) Significance was defined as p<0.05.

[2] = test system: BT549; test: Cell viability drug titration (EC50), 4 days of drug treatment; assay type: cell-based; conditions: Homo sapiens, BT-549, 96 h
Source text: as §1

[3] = test system: HCC1395; test: as above; assay type: cell-based; conditions: Homo sapiens
Source text: as §1

[4] = test system: HCC1428 + HA-CREB3L1; test: as above; assay type: cell-based; conditions: Homo sapiens
Source text: as §1

[5] = test system: HCC1428; test: as above; assay type: cell-based; conditions: for drug sensitivity of HCC1428 as compared to the corresponding CREB3L1-expressing cells: HCC1428 vs HCC1428 + HA-CREB3L1; for EC50: Homo sapiens
Source text: as §1

[6] = test system: HCC1806+HA-CREB3L1 cells; test: as above; assay type: cell-based; conditions: Homo sapiens, 96 h, single agent
Source text: as §1

[7] = test system: HCC38; test: as above; assay type: cell-based; conditions: Homo sapiens
Source text: as §1

[8] = test system: Hs578T; test: as above; assay type: cell-based; conditions: Homo sapiens, Hs-578T, 96 h
Source text: as §1

[9] = test system: MCF7; test: as above; assay type: cell-based; conditions: Homo sapiens
Source text: as §1

[10] = test system: MDA-MB-157; test: as above; assay type: cell-based; conditions: Homo sapiens, MDA-MB-157, 96 h
Source text: as §1

[11] = test system: MDA-MB-436; test: as above; assay type: cell-based; conditions: Homo sapiens
Source text: as §1

[12] = test system: T47D + HA-CREB3L1; test: as above; assay type: cell-based; conditions: Homo sapiens, 96 h
Source text: as §1

[13] = test system: T47D; test: as above; assay type: cell-based; conditions: Homo sapiens, 96 h
Source text: as §1

[14] = test system: ZR-75-1; test: as above; assay type: cell-based; conditions: Homo sapiens
Source text: as §1

[15] = test system: MCF10A cells
Protocol: Cells were authenticated by the supplier (http://www.ATCC.org) and cultured as recommended by ATCC for less than six months from the time of resuscitation. HCC1806, HCC1428 and T47D cells stably expressing triple hemagglutinin (HA)-tagged CREB3L1 (HA-CREB3L1) have been described and characterized previously.
Cells were allowed to attach and grow at 37° C. and 5% CO2. The following day the media was carefully removed from each well and replaced with drug-containing media in triplicate wells, again using the ASSIST PLUS. After 4 days of drug treatment cells were stained with Hoechst and ImageIT® Dead Green to quantify total and live cells as detailed below.
Images of each well of the 384-well plates were acquired using a Thermo Scientific® CellInsight® CX7 High Content Screening (HCS) Platform. Nine fields of view were captured using a 10×(0.4 NA) air objective lens. Images were analyzed using Thermo Scientific HCS Studio® 3 Cell Analysis Software using the Spot Detector bio-application (Cellomics®). Total cells were identified and counted by their Hoechst-stained nuclei at 386 nm (blue) channel 1 (Ch1) and dead cells were quantified from the ImageIT® Dead Green on the 485 nm wavelength (green) channel 2 (Ch2). […] The test well total live cell count was divided by the average of the corresponding solvent control total live cell count, giving the percentage cell viability (% viability). The mean±standard error of the mean (SEM) of the % viability of each set of triplicate wells was determined.
Drug titration experiments were carried out as described for the secondary drug screens, except a range of drug concentrations were tested. […] EC values were determined using PRISM software (GraphPad, v9.2.0) using non-linear curve fit. A student's t-test was used to determine statistically significant differences between the EC values for the two cell lines. Significance was defined as p<0.05.

[16] = test system: anti-apoptotic proteins, including MCL-1, BCL-2 and surviving; conditions: several TNBC cell lines; reference [21]; cited from earlier work
[17] = test system: MDA-MB-231 TNBC xenografts; conditions: cited from earlier work
[18] = test system: TNBC; conditions: combined with docetaxel, reference [23]; cited from earlier work
[19] = Homo sapiens, HCC1806, 96 h, HCC1806 parental (CREB3L1-deficient TNBC), single agent, 4 days of drug treatment, read-out: EC50
[20] = BT549 parental (TNBC), single agent, 4 days, read-out: EC50
[21] = 96 h, HCC1395 parental (TNBC), single agent, 4 days, read-out: EC50
[22] = 96 h, HCC1428 + HA-CREB3L1, single agent, 4 days, read-out: EC50
[23] = 96 h, HCC1428 parental (Luminal A, ER+), single agent, 4 days, read-out: EC50
[24] = 96 h, HCC38 parental (TNBC), single agent, 4 days, read-out: EC50
[25] = Hs578T parental (TNBC), single agent, 4 days, read-out: EC50
[26] = 96 h, MCF7 parental (Luminal A, ER+), single agent, 4 days, read-out: EC50
[27] = 96 h, MDA-MB-436 parental (TNBC), single agent, 4 days, read-out: EC50
[28] = T47D + HA-CREB3L1, single agent, 4 days, read-out: EC50
[29] = T47D parental (Luminal A, ER+), single agent, 4 days, read-out: EC50
[30] = 96 h, ZR-75-1 parental (Luminal A, ER+), single agent, 4 days, read-out: EC50

Row | SMILES | EC50 [1, 19] | cytotoxicity towards CREB3L1-deficient HCC1806 as compared to HCC1806+HA-CREB3L1 cells ([1]; drug titration, 4 days, FIG. 2) | EC50 [2, 20] | EC50 [3, 21] | EC50 [4, 22] | drug sensitivity of HCC1428 as compared to the corresponding CREB3L1-expressing cells [5] | EC50 [5, 23] | EC50 [6] | EC50 [7, 24] | EC50 [8, 25] | EC50 [9, 26] | EC50 [11, 27] | EC50 [12, 28] | EC50 [13, 29] | EC50 [14, 30] | cytotoxicity towards non-tumorigenic MCF10A cells as compared to HCC1806 cells [15] | further results
1 | Nc1nc(Cl)nc2c1ncn2[C@H]1C[C@H](O)[C@@H](CO)O1 [Cladribine, cladribine] | 92 nM | showed a preference for killing the more metastatic CREB3L1-deficient HCC1806 TNBC cells | 178 ± 84 nM | 10100 ± 1200 nM | 2200 ± 1700 nM | increased drug sensitivity | 740 ± 330 nM | 182 ± 60 nM | 65 ± 56 nM | 5700 ± 1200 nM | 3400 ± 2100 nM | 660 ± 180 nM | 1800 ± 1300 nM | 9600 ± 1800 nM | 750 ± 350 nM | Little or no cytotoxicity | EC50 ([10]; read-out: EC50): 5000 ± 4300 nM
2 | COc1cccc2c1C(=O)c1c(O)c3c(c(O)c1C2=O)C[C@@](O)(C(=O)CO)C[C@@H]3O[C@H]1C[C@H](N)[C@H](O)[C@H](C)O1 [Doxorubicin, doxorubicin] | 13 ± 4 nM | – | – | – | – | – | – | 17 ± 6 nM | – | – | – | – | – | – | – | – | EC50 ([1]; HCC1806 parental (CREB3L1-deficient TNBC), single agent, 4 days of drug treatment, read-out: EC50): 13.2 nM
3 | COC(=O)C[C@](O)(CCCC(C)(C)O)C(=O)O[C@@H]1C(OC)=C[C@]23CCCN2CCc2cc4c(cc2[C@H]13)OCO4 [Homoharringtonine, 1-((1S,3aR,14bS)-2-Methoxy-1,5,6,8,9,14b-hexahydro-4H-cyclopenta(a)(1,3)dioxolo(4,5-h)pyrrolo (2,1-b)(3)benzazepin-1-yl) 4-methyl (2R)-2-hydroxy-2-(4-hydroxy-4-methylpentyl)butanedioate] | 29 nM | showed a preference for killing the more metastatic CREB3L1-deficient HCC1806 TNBC cells | 89 ± 10 nM | 104 ± 31 nM | 10 ± 3 nM | the opposite was true | 9 ± 3 nM | 42 ± 7 nM | 58 ± 10 nM | 42 ± 24 nM | 18 ± 9 nM | 33 ± 36 nM | 88 ± 55 nM | 400 ± 180 nM | 117 ± 35 nM | similar | EC50 ([10]; read-out: EC50): 7.5 ± 1.2 nM; expression of anti-apoptotic proteins, including MCL-1, BCL-2 and surviving [16]: rapidly reduce the expression; tumor growth ([17]; MDA-MB-231 TNBC xenografts, mice, reference [21]): reduced tumor growth; general toxicity for the mice ([17]; mouse, in vivo): without general toxicity
4 | CC(=O)O[C@H]1C[C@H](O[C@H]2[C@@H](O)C[C@H](O[C@H]3[C@@H](O)C[C@H](O[C@H]4CC[C@@]5(C)[C@H](CC[C@@H]6[C@@H]5C[C@@H](O)[C@]5(C)[C@@H](C7=CC(=O)OC7)CC[C@]65O)C4)O[C@@H]3C)O[C@@H]2C)O[C@H](C)[C@H]1O[C@@H]1O[C@H](CO)[C@@H](O)[C@H](O)[C@H]1O [Lanatoside C, lanatoside C] | – | – | – | – | – | the opposite was true | – | – | – | – | – | – | – | – | – | very sensitive | cytotoxicity towards CREB3L1-deficient HCC1806 as compared to HCC1806+HA-CREB3L1 cells [1]: showed a preference for killing the more metastatic CREB3L1-deficient HCC1806 TNBC cells; EC50 ([1]; Homo sapiens, HCC1806, 96 h): 143 nM; EC50 [2]: 42 ± 12 nM; EC50 ([3]; HCC1395, 96 h): 510 ± 300 nM; EC50 ([4]; HCC1428, 96 h): 32 ± 8 nM; EC50 ([5]; HCC1428, 96 h): 35 ± 8 nM; EC50 ([7]; HCC38, 96 h): 300 ± 100 nM; EC50 [8]: 1000 ± 800 nM; EC50 ([9]; MCF7, 96 h): 450 ± 490 nM; EC50 [10]: 550 ± 240 nM; EC50 ([11]; MDA-MB-436, 96 h): 460 ± 250 nM; EC50 ([12]; T47D): 89 ± 34 nM; EC50 ([13]; T47D): 500 ± 50 nM; EC50 ([14]; ZR-75-1, 96 h): 650 ± 510 nM
5 | CC(=O)O[C@H]1C(=O)[C@@]2(C)[C@H]([C@H](OC(=O)c3ccccc3)[C@]3(O)C[C@H](OC(=O)[C@H](O)[C@@H](NC(=O)c4ccccc4)c4ccccc4)C(C)=C1C3(C)C)[C@]1(OC(C)=O)CO[C@@H]1C[C@@H]2O [Paclitaxel, (2α,4α,5β,7β,10β,13α)-4, 10-Bis(acetyloxy)-13-{[(2R,3S)-3-(benzoylamino)-2-hydroxy-3-phenylpropanoyl]oxy}-1,7-dihydroxy-9-oxo-5,20-epoxytax-11-en-2-yl benzoate] | 1.2 ± 0.5 nM | – | – | 12 nM | – | – | – | 1.2 ± 0.4 nM | 2.4 nM | 7.4 nM | – | – | – | – | – | – | –
6 | CC(=O)c1c(C)c2cnc(Nc3ccc(N4CCNCC4)cn3)nc2n(C2CCCC2)c1=O [Palbociclib Isethionate, palbociclib isethionate] | 500 nM | showed a preference for killing the more metastatic CREB3L1-deficient HCC1806 TNBC cells | 12600 ± 4800 nM | 4000 ± 2000 nM | 160 ± 250 nM | – | 21 ± 15 nM | 1300 ± 490 nM | 210 ± 70 nM | 3200 ± 1400 nM | 4400 ± 3500 nM | 17000 ± 14000 nM | 7200 ± 9200 nM | 13000 ± 9800 nM | 710 ± 350 nM | very sensitive | –
7 | Cc1c(-c2c(-c3ccc(F)o3)sc3ncnc(O[C@H](Cc4ccccc4OCc4ccnn4CC(F)(F)F)C(=O)O)c23)ccc(OCCN2CCN(C)CC2)c1Cl [S63845] | – | – | – | – | – | – | – | – | – | – | – | – | – | – | – | – | synergistic activity with docetaxel [18]: synergistic activity
